Common to all, as to type: biochemical
What all share (settings): catalytic domain, 10 nM activated enzyme, 4 uM ATP, 8 uM peptide, 40 minutes at room temperature

The target of one assay is T1, delta-PH AKT1 (Homo sapiens, UniProt P31749).
T1 construct: Insect cells expressing His-tagged AKT1 (aa 136-480) were lysed; His; made in house; host or cells: insect cells
The assay is described as follows: AKT enzyme assay (substrate phosphorylation, SPA), AKT1. The procedure: Insect cells expressing His-tagged AKT1 (aa 136-480) were lysed in 25 mM HEPES, 100 mM NaCl, 20 mM imidazole; pH 7.5 using a polytron (5 mLs lysis buffer/g cells). Cell debris was removed by centrifuging at 28,000×g for 30 minutes. The supernatant was filtered through a […] filter then loaded onto a nickel-chelating column pre-equilibrated with lysis buffer. The column was washed with 5 column volumes (CV) of lysis buffer then with 5 CV of 20% buffer B, where buffer B is 25 mM HEPES, 100 mM NaCl, 300 mM imidazole; pH 7.5. His-tagged AKT1 (aa 136-480) was eluted with a 20-100% linear gradient of buffer B over 10 CV. His-tagged AKT1 (136-480) eluting fractions were pooled and diluted 3-fold with buffer C, where buffer C is 25 mM HEPES, pH 7.5. […]
Compounds of the present invention were tested for AKT 1, 2, and 3 protein serine kinase inhibitory activity in substrate phosphorylation assays. […] Substrate phosphorylation was detected by the following procedure:
Assays were performed in 384 well U-bottom white plates. […] The reaction was stopped by the addition of 50 ul SPA bead mix (Dulbecco's PBS without Mg^2+ and Ca^2+, 0.1% Triton X-100, 5 mM EDTA, 50 uM ATP, 2.5 mg/ml Streptavidin-coated SPA beads.) The plate was sealed, the beads were allowed to settle overnight, and then the plate was counted in a Packard Topcount Microplate Scintillation Counter (Packard Instrument Co., Meriden, Conn.). […]

Another assay has as its target T2, delta-PH AKT2 (Homo sapiens, UniProt P31751).
T2 construct: His-tagged AKT2 (aa 138-481) and His-tagged AKT3 (aa 135-479) were isolated; His; made in house; host or cells: insect cells (only by 'in a similar fashion' to AKT1)
Kind of assay: AKT enzyme assay (substrate phosphorylation, SPA), AKT2. How it is done:
(§1) His-tagged AKT2 (aa 138-481) and His-tagged AKT3 (aa 135-479) were isolated and purified in a similar fashion.
(§2) Compounds of the present invention were tested for AKT 1, 2, and 3 protein serine kinase inhibitory activity in substrate phosphorylation assays. This assay examines the ability of small molecule organic compounds to inhibit the serine phosphorylation of a peptide substrate. The substrate phosphorylation assays use the catalytic domains of AKT 1, 2, or 3. […] Substrate phosphorylation was detected by the following procedure:
(§3) Assays were performed in 384 well U-bottom white plates. […] The reaction was stopped by the addition of 50 ul SPA bead mix (Dulbecco's PBS without Mg^2+ and Ca^2+, 0.1% Triton X-100, 5 mM EDTA, 50 uM ATP, 2.5 mg/ml Streptavidin-coated SPA beads.) The plate was sealed, the beads were allowed to settle overnight, and then the plate was counted in a Packard Topcount Microplate Scintillation Counter (Packard Instrument Co., Meriden, Conn.).
(§4) The data for dose responses were plotted as % Control calculated with the data reduction formula 100*(U1-C2)/(C1-C2) versus concentration of compound where U is the unknown value, C1 is the average control value obtained for DMSO, and C2 is the average control value obtained for 0.1M EDTA. […]

The target in a further assay is T3, delta-PH AKT3 (Homo sapiens, UniProt Q9Y243).
T3 construct: His-tagged AKT2 (aa 138-481) and His-tagged AKT3 (aa 135-479) were isolated; His; made in house; host or cells: insect cells (only by 'in a similar fashion' to AKT1)
T3 sequence (Q9Y243 135-479): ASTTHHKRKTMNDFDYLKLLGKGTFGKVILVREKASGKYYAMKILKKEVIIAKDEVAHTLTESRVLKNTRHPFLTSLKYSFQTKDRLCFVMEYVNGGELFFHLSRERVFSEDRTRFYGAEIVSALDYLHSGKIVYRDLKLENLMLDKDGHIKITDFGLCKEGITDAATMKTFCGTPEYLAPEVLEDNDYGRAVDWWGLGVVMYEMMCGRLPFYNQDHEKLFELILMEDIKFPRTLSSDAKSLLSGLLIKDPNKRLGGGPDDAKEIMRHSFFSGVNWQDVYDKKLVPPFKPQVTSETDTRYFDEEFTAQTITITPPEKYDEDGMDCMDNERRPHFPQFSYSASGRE
Kind of assay: AKT enzyme assay (substrate phosphorylation, SPA), AKT3. The procedure: as §1, §2, §3, §4

Where a name gives a salt, the structure may show the parent alone.

T2 sequence (P31751 138-481): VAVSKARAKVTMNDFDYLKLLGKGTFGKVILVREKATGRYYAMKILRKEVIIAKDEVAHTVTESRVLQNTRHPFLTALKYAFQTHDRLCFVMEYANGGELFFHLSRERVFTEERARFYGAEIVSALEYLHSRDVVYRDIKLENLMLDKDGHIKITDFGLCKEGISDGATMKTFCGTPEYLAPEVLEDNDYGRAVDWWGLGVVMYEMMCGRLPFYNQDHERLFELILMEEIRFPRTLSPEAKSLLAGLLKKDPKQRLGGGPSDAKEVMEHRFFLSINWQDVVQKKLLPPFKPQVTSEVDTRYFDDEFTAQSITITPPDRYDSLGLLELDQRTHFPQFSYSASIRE
T1 sequence (P31749 136-480): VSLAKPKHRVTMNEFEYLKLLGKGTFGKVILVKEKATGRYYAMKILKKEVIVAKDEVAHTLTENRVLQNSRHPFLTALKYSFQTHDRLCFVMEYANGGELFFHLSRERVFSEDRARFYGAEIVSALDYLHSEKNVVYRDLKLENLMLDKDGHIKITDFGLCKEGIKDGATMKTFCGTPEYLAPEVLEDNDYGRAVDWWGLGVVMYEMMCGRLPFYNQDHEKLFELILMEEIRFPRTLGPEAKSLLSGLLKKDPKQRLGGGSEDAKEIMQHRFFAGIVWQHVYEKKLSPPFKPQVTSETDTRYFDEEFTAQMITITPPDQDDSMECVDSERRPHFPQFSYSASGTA

The term IC50 denotes the concentration that gives 50% inhibition. Read a high IC50 as a need for much substance. Consider `CCn1c(-c2nonc2N)nc2c(-c3cccc(Cl)c3)ncc(NCCCNC[C@H](O)CO)c21` [Example 236, (S)-3-[3-[2-(4-amino-furazan-3-yl)-4-(3-chloro-phenyl)-1-ethyl-1H-imidazo[4,5-c]pyridin-7-ylamino]-propylamino]-propane-1,2-diol trifluoroacetate], for which the half-maximal inhibitory concentration (IC50) at delta-PH AKT1 is 0.069 µM; on delta-PH AKT2, 0.038 µM; at delta-PH AKT3, 0.032 µM.

These data come from patent US20080255143A1, “Inhibitors of Akt Activity” (SMITHKLINE BEECHAM CORPORATION, priority 2003, published 2008).
